Measured values published in patent US20090069304A1, “MMP-13 SELECTIVE INHIBITOR” (SHIONOGI & CO., LTD., priority 2006, published 2009).

Legend:
[1] = target: T1, MMP-9 (Homo sapiens, UniProt P14780); test: Enzyme inhibiting activity of MMPs (fluorogenic peptide substrate), MMP-9; type: biochemical; conditions: human MMP-9; substrate MOCAc-Pro-Leu-Gly-Leu-A2Pr(DNP)-Ala-Arg-NH2
T1 construct: purchased Calbiochem (EMD/MERCK Biosciences)
Experimental: (§1) Various human MMPs (MMP-2, MMP-9 and MMP-13) were purchased from Calbiochem (EMD/MERCK Biosciences).
(§2) The enzyme activity of MMPs was measured according to the method described in C. Graham Knight, Frances Willenbrock and Gillian Murphy: A novel coumarin-labelled peptide for sensitive continuous assays of the matrix metalloproteinases: FEBS LETT., 296, (1992), 263-266. As a substrate, MOCAc-Pro-Leu-Gly-Leu-A2Pr(DNP)-Ala-Arg-NH2 (Peptide Institute, Inc. Osaka, Japan) was used, and the following four assays are performed per compound (inhibitor) for measuring the inhibiting activity.
(§3) (A) Substrate (synthetic substrate), enzyme (MMPs), inhibitor (B) Substrate (synthetic substrate), inhibitor (C) Substrate (synthetic substrate), enzyme (MMPs) (D) Substrate (synthetic substrate) In each assay, the fluorescent intensity was measured, and inhibition (%) was calculated by the following equation.
(§4) Inhibition(%)=[I−(A−B)/(C−D)]×100
(§5) IC50 indicates a concentration at which inhibition (%) is 50%.

[2] = target: T2, MMP-2 (Homo sapiens, UniProt P08253); test: Enzyme inhibiting activity of MMPs (fluorogenic peptide substrate), MMP-2; type: biochemical; conditions: human MMP-2; substrate MOCAc-Pro-Leu-Gly-Leu-A2Pr(DNP)-Ala-Arg-NH2
T2 construct: purchased Calbiochem (EMD/MERCK Biosciences)
T2 sequence (P08253 110-660): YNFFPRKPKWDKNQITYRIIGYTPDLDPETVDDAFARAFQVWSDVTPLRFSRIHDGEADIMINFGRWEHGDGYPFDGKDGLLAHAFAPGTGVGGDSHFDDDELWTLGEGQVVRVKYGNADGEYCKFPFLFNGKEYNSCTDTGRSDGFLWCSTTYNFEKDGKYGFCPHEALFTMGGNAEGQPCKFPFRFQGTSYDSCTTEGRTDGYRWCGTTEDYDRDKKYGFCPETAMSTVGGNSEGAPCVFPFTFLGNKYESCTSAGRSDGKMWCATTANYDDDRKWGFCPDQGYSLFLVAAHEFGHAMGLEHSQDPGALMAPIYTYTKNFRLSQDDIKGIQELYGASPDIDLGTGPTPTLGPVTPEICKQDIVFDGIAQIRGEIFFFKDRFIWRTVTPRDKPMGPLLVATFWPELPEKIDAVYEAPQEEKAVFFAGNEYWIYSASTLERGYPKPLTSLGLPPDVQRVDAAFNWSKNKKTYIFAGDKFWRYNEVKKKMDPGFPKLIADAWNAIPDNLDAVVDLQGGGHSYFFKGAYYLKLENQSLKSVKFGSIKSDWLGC
Experimental: as §1, §2, §3, §4, §5

[3] = target: T3, MMP-13 (Homo sapiens, UniProt P45452); test: Enzyme inhibiting activity of MMPs (fluorogenic peptide substrate), MMP-13; type: biochemical; conditions: human MMP-13, proenzyme activated with APMA; substrate MOCAc-Pro-Leu-Gly-Leu-A2Pr(DNP)-Ala-Arg-NH2
T3 construct: purchased Calbiochem (EMD/MERCK Biosciences)
Experimental: as §1
Since the purchased MMP-13 was Proenzyme, the activated one was used, which was incubated at 37° C. for 2 hours after the successive addition of an assay buffer (containing 50 mM Tris-HCl (pH7.6), 0.3 M NaCl, 10 mM CaCl2, 0.005% Brij35) and APMA (final concentration 1 mM) to the enzyme solution.
as §2, §3, §4, §5

T1 sequence (P14780 94-707): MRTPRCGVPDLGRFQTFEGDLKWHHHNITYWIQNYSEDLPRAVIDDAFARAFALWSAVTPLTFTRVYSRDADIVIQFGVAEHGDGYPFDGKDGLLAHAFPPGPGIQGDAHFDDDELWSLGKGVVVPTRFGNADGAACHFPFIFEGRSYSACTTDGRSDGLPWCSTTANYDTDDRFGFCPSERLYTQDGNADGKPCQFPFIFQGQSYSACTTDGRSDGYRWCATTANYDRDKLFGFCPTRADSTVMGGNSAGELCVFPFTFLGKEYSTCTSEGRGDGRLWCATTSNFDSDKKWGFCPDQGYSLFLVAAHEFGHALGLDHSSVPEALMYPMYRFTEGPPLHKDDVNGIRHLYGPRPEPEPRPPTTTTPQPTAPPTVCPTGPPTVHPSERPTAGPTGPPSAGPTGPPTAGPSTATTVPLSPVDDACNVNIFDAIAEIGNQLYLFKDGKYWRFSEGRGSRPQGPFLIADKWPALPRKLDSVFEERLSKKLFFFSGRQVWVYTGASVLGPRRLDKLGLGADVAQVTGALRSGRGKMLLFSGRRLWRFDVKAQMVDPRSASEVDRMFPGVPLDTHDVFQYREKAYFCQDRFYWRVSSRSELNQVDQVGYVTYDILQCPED

Row | SMILES | IC50 [1] [µM] | IC50 [2] [µM] | IC50 [3] [µM] | melting point
1 | CCOc1ccc2cc(C#Cc3ccc(N4CCN(S(=O)(=O)N[C@H](C)C(=O)O)CC4)cc3)ccc2c1 [Compound I-27, (R)-2-{4-[4-(6-ethoxy-naphthalen-2-ylethynyl)-phenyl]-piperazine-1-sulfonylamino)-propionic acid] | > 10 | > 10 | 0.0423 | 
2 | CCC[C@H](NS(=O)(=O)N1CCN(c2ccc(C#Cc3ccc4cc(OC)ccc4c3)cc2)CC1)C(=O)O [Compound I-1, (S)-2-{4-[4-(6-methoxy-naphthalen-2-ylethynyl)-phenyl]-piperazine-1-sulfonylamino}-pentanoic acid] | > 10 | > 10 | 0.121 | 187 to 190 °C (dec.)
3 | CCC[C@H](NS(=O)(=O)N1CCN(c2ccc(/C=C/c3ccc4ccccc4c3)cc2)CC1)C(=O)O [Compound I-13] | > 10 | > 10 | 0.0443 | 
4 | CCC[C@H](NS(=O)(=O)N1CCC(c2ccc(CCc3ccc4cc(OC)ccc4c3)cc2)CC1)C(=O)O [Compound I-20, (S)-2-(4-{4-[2-(6-methoxy-naphthalen-2-yl)-ethyl]-phenyl}-piperidine-1-sulfonylamino]-pentanoic acid] | > 10 | 1 to 10 | 0.0945 | 
5 | COc1ccc2cc(C#Cc3ccc(N4CCN(S(=O)(=O)N[C@H](C)C(=O)O)C[C@@H]4C)cc3)ccc2c1 [Compound I-53] | > 10 | 1 to 10 | 0.107 | 
6 | COc1ccc2cc(/C=C/c3ccc(N4CCN(S(=O)(=O)N[C@@H](C)C(=O)O)CC4)cc3)ccc2c1 [Compound I-21, (S)-2-(4-{4-[(E)-2-(6-methoxy-naphthalen-2-yl)-vinyl]-phenyl}-piperazine-1-sulfonylamino}-propionic acid] | > 10 | > 10 | 0.176 | 
7 | C[C@@H](NS(=O)(=O)N1CCN(c2ccc(OCc3ccc4ccccc4c3)cc2)CC1)C(=O)O [Compound I-2, (R)-2-{4-[4-(naphthalen-2-ylmethoxy)-phenyl]-piperazine-1-sulfonylamino}-propionic acid] |  |  |  | 167 to 171 °C
8 | CON=Cc1ccc2cc(C#Cc3ccc(N4CCN(S(=O)(=O)N[C@H](C)C(=O)O)CC4)cc3)ccc2c1 [Compound I-66, (R)-2-(4-{4-[6-(methoxyimino-methyl)-naphthalen-2-ylethynyl]-phenyl)-piperazine-1-sulfonylamino]-propionic acid] | > 10 | > 10 | 0.0396 | 
9 | CCC[C@H](NS(=O)(=O)N1CCC(c2ccc(/C=C/c3ccc4ccccc4c3)cc2)CC1)C(=O)O [Compound I-25] | > 10 | > 10 | 0.145 | 
10 | CCC[C@H](NS(=O)(=O)N1CCC(c2ccc(C=Cc3ccc4cc(OC)ccc4c3)cc2)CC1)C(=O)O [Compound I-24, (S)-2-(4-{4-[(A)-2-(6-methoxy-naphthalen-2-yl)-vinyl]-phenyl)-piperidine-1-sulfonylamino}-pentanoic acid] | > 10 | > 10 | 0.138 | 

Results, then the compound that gave them:

Row | IC50 [1] [µM] | IC50 [2] [µM] | IC50 [3] [µM] | melting point | SMILES
11 | > 10 | 1 to 10 | 0.0685 |  | C[C@@H](NS(=O)(=O)N1CCN(c2ccc(C#Cc3ccc4cc(OCC5CC5)ccc4c3)cc2)CC1)C(=O)O [Compound I-32, (R)-2-{4-[4-(6-cyclopropylmethoxy-naphthalen-2-ylethynyl)-phenyl]-piperazine-1-sulfonylamino)-propionic acid]
12 | > 10 | 1 to 10 | 0.0965 |  | CCC[C@H](NS(=O)(=O)N1CCN(c2ccc(/C=C/c3ccc4cc(OCOC)ccc4c3)cc2)CC1)C(=O)O [Compound I-49, (S)-2-(4-{4-[(E)-2-(6-methoxymethoxy-naphthalen-2-yl)-vinyl]-phenyl}-piperazine-1-sulfonylamino)-pentanoic acid]
13 | > 10 | 1 to 10 | 0.126 |  | COc1ccc2cc(COc3ccc(N4CCN(S(=O)(=O)N[C@@H](C)C(=O)O)CC4)cc3)ccc2c1 [Compound I-15, (S)-2-{4-[4-(6-methoxy-naphthalen-2-ylmethoxy)-phenyl]-piperazine-1-sulfonylamino}-propionic acid]
14 | > 10 | > 10 | 0.0771 |  | CCC[C@H](NS(=O)(=O)N1CCN(c2ccc(C#Cc3ccc4cc(OCC)ccc4c3)cc2)CC1)C(=O)O [Compound I-28, (S)-2-{4-[4-(6-ethoxy-naphthalen-2-ylethynyl)-phenyl]-piperazine-1-sulfonylamino)-pentanoic acid]
15 | > 10 | 1 to 10 | 0.186 |  | COc1ccc2cc(CNc3ccc(N4CCN(S(=O)(=O)N[C@H](C)C(=O)O)CC4)cc3)ccc2c1 [Compound I-45, (R)-2-(4-{4-[4-(6-methoxy-naphthalen-2-ylmethyl)-amino]-phenyl}-piperazine-1-sulfonylamino)-propionic acid]
16 | > 10 | > 10 | 0.11 |  | COc1ccc2cc(C#Cc3ccc(N4CCN(S(=O)(=O)N[C@H](C(=O)O)C(C)C)CC4)cc3)ccc2c1 [Compound I-5, (S)-2-{4-[4-(6-methoxy-naphthalen-2-ylethynyl)-phenyl]-piperazine-1-sulfonylamino}-3-methyl-butanoic acid]
17 | > 10 | > 10 | 0.131 |  | COc1ccc2cc(C#Cc3ccc(N4CCN(S(=O)(=O)N[C@H](C)C(=O)O)C(C)C4)cc3)ccc2c1 (some centres unmarked) [Compound I-47]
18 | > 10 | > 10 | 0.142 |  | COc1ccc2cc(COc3ccc(C4CCN(S(=O)(=O)NC(C)C(=O)O)CC4)cc3)ccc2c1 (centres unmarked) [Compound I-19]
19 | > 10 | > 10 | 0.0549 |  | COc1ccc2cc(C#Cc3ccc(C4CCN(S(=O)(=O)N[C@H](C)C(=O)O)CC4)cc3)ccc2c1 [Compound I-11, (R)-2-{4-[4-(6-methoxy-naphthalen-2-ylethynyl)-phenyl]-piperidine-1-sulfonylamino}-propionic acid]
